Test results taken from patent US20050261246A1, “Methods for treating inflammatory and autoimmune diseases” (priority 2004, published 2005).

Key:
[1] = system: NO production in LPS-stimulated RAW 264.7 cells; assay: NO production in LPS-stimulated RAW264.7 macrophage cell line (Griess reaction); assay type: cell-based, mouse; settings: pre-treated with different concentrations, then 1 ng/ml LPS
Description: Cells were pre-treated with different concentrations of SNS and then followed by stimulation with LPS. C is medium control. LPS, positive control without SNS treatment. The statistical analysis was performed using one-way ANOVA.
In further tests, we investigated the effect of SNS on the production of NO in a mouse macrophage cell line, RAW264.7. Cells were pre-treated with different concentrations of SNS and subsequently stimulated with 1 ng/ml of LPS. The level of NO production was measured by a spectrophotographic method using the Griess reaction. […] “C” is medium control, and “LPS” is positive control without SNS treatment. This analysis had been performed at least 3-5 times depending on the cell lines and drug used, with statistical analysis performed using one-way ANOVA.

[2] = system: Lewis rats with Adjuvant-Induced Arthritis; assay: Adjuvant-induced arthritis (AA) rat model: footpad width, radiographs, spleen weight; assay type: in vivo
Description: Summary: Adjuvant-Induced Arthritis (“AA”) was induced by intradermal injection of complete Freund's adjuvant (CFA) into the base of the tail of Lewis rats. Controls received intradermal injections of the arthritogenic antigen, M. butyricum suspended in saline. […] AA and control rats were given once-daily intraperitoneal (i.p.) injections of narcistatin (5 mg/Kg/day, in 250 μl sterile saline), vehicle, or no treatment initiated at disease onset and continued through severe disease.
Adult male Lewis rats (200-250 g) were purchased from Charles River Laboratories, Raleigh, N.C. and housed two per cage. The animals were allowed to acclimate to the Sun Health Research Institute's vivarium for 7 days prior to the start of the experiment. The animals were maintained on a 12-h off/on light schedule. For AA rats rodent Diet (Purina Lab Diet 5001) was placed in the bottom of the cage and water was supplied using long-stemmed sipper tubes for easy access to food and water. […] Animals were weighed and observed daily to ensure adequate weight gain and good general health. Body weights and footpad measures were started 1 week prior to the first adjuvant injection to acclimate the animals to these mild stresses and obtain baseline data. Other than the development of arthritis, the good health of the animals was maintained throughout the course of the experiments. Protocols for the use and care of the animals in the study were approved prior to beginning the experiments by the Sun Health Research Institute Animal Use and Care Committee and complied with NIH guidelines for the humane use and care of research animals. Dorsoplantar footpad measurements were completed every other day. Prior to sacrifice the animals were given a 1.0 ml intraperitoneal (i.p.) injection of 8% chloral hydrate in sterile saline and radiographs were taken of their hind limbs to assess disease severity. The animals were then sacrificed using an overdose of chloral hydrate.
Sodium narcistatin was synthesized as previously described (27). CFA was prepared by emulsifying Mycobacterium butyricum (0.03 g dried and heat killed; Difco, Detroit, Mich. in 10 ml sterile mineral oil). M. butyricum (0.03 g) also was suspended in 10 ml sterile saline. The CFA and M. butyricum in saline were prepared by grinding the M. butyricum with a mortar and pestle until the lyophilized bacteria had turned from a light beige to an eggshell white powder. The mineral oil or saline was then slowly worked into the heat-killed bacteria using the mortar and pestle. The suspensions were treated with a sonic dismembraner for 5 min to ensure that the bacterial cell wall remained suspended in the mineral oil or saline until the animal injections. While there is variability in severity of disease development between the batches of adjuvant, there is very little variability within each batch. All animals in each experiment were challenged with the same preparation of adjuvant and 100% of the animals developed arthritis with similar timing of disease onset.
Lewis rats were randomly assigned into five experimental groups of four animals per group. The experimental groups were 1) saline/M. Butyricum suspended in saline (non-arthritic; control for drug and antigen challenge), 2) sodium narcistatin/M. Butyricum suspended in saline (non-arthritic; drug control for antigen challenge), 3) no treatment-CFA (arthritic; control for stress of injections), 4) saline-CFA (arthritic; control for drug treatment), and 5) sodium-narcistatin-CFA (arthritic) treatments. The experiment was completed with an N=4 then repeated with an additional N=4. The data from each group in the first and repeated experiment were compared. No statistical differences between the findings from these repeat experiments were found; therefore, the data was combined to give an N=8 for each experimental group. CFA or saline/M. Butyricum injections were given on experimental day 1. […]

[3] = system: TNFα production; assay: TNFα production from splenic cultures of Balb/c mice treated with SNS; assay type: in vivo, mouse; settings: non-CAIA Balb/c mice treated 5 days, p<0.01
Description: Balb/c mice (n=5) were treated i.p. with SNS at 5 mg/Kg or with PBS for 5 consecutive days. Spleen were isolated on the next day after the last SNS injection and the splenocytes were stimulated with anti-CD3 antibody or LPS for 24 hrs, and supernatant were analyzed for TNF-α production.
Isolated splenic cells were cultured with either immobilized […] (50 ug/ml) or 1 ug/ml LPS for […]. Cells without any stimulation were included as control. The supernatants from these cultures were analyzed for TNFα using BD™ CBA Mouse Inflammatory Kit (BD Biosciences), according to the manufacture's procedure. The average TNF concentration in each culture was derived from 2-3 independent experiments of 4-5 mice per group per experiment. No arthritis was induced in these experiments. […] Thus, TNFα production was reduced in the splenic culture of SNS-treated mice, in response to T cell activation by anti-CD3 antibody.

[4] = AA rats, 5 mg/Kg/day i.p., vs vehicle treated AA rats

**Q.** How did the NO production [1] turn out when O=C1N[C@@H]2C(=C[C@H](O)[C@H]3OP(=O)(O)O[C@H]32)c2cc3c(c(O)c21)OCO3 [SNS, sodium narcistatin] was run?
**A.** concentration-dependent inhibition of NO production

**Q.** And the “reduction of bone loss, as measured by radiographic analysis” value [2, 4]?
**A.** ~50%

**Q.** And the “reduction of hind limb inflammation, as measured by dorsoplantar width” value [2, 4]?
**A.** ~70%

**Q.** What about the “time of disease onset” value ([2]; CFA-challenged rats) of the same compound?
**A.** did not change the time of disease onset

**Q.** What about the “soft tissue swelling of the dorsoplantar footpads” value ([2]; CFA-challenged rats, day 23 to day 28 post-immunization, vs vehicle-treated arthritic rats) of the same compound?
**A.** significantly decreased the soft tissue swelling

**Q.** What about the “redness and soft tissue swelling of hind limbs” value ([2]; arthritic rats, daily treatment day 10 through day 28, photomicrographs day 28) of the same compound?
**A.** dramatically decreased the redness and soft tissue swelling

**Q.** What about the “bone destruction and cartilage loss in radiographs” value ([2]; arthritic rats, day 28, vs saline-treated arthritic rats) of the same compound?
**A.** decreases in bone destruction (mainly osteoporosis and erosions) and cartilage loss

**Q.** And the “radiographic scores of ankle joints” value ([2]; arthritic rats, day 28, vs vehicle or no treatment, P<0.05)?
**A.** significantly lower radiographic scores

**Q.** And the “spleen weight, arthritic rats” value ([2]; day 28, vs Saline-CFA)?
**A.** blocked this increase in spleen weight

**Q.** What about the “spleen weight, antigen-challenged non-arthritic rats” value ([2]; day 28, vs saline) of the same compound?
**A.** did not differ

**Q.** And the “footpad width in non-arthritic animals” value ([2]; non-arthritic, vehicle vs drug)?
**A.** no differences in footpad width

**Q.** What about the “TNFα in splenic cultures stimulated with anti-CD3” value [3] of the same compound?
**A.** significant reduction of TNFα
